Assay results from US8974801B2, “Long term sustained release pharmaceutical composition containing aqueous suspension of bisphosphonate” (priority 2006, dated 2015).

Details: female, Sprague-Dawley, rat, in vivo

SMILES: NCCCC(O)(P(=O)(O)O)P(=O)(O)O [Alendronate Calcium, alendronate calcium]
- Total Net Bone Absorbed: 770
